Test results from ChEMBL document CHEMBL4507298 (2021).

Tests used:
[1] = target: RAC-gamma serine/threonine-protein kinase (Homo sapiens) (UniProt Q9Y243); conditions: Compound concentration 1000.0 nM
[2] = target: Tyrosine-protein kinase Fgr (Homo sapiens) (UniProt P09769); conditions: Compound concentration 1000.0 nM
[3] = target: 5-hydroxytryptamine receptor 2A (Homo sapiens) (UniProt P28223); conditions: Compound concentration 10.0 uM
[4] = target: Cyclin-dependent kinase 8 (Homo sapiens) (UniProt P49336); conditions: Compound concentration 1000.0 nM
[5] = target: Mitogen-activated protein kinase kinase kinase kinase 1 (Homo sapiens) (UniProt Q92918); conditions: Compound concentration 1000.0 nM
[6] = target: 5-hydroxytryptamine receptor 2B (Homo sapiens) (UniProt P41595); conditions: Compound concentration 10.0 uM
[7] = target: Histamine H2 receptor (Homo sapiens) (UniProt P25021); conditions: Compound concentration 10.0 uM
[8] = target: Sodium-dependent noradrenaline transporter (Homo sapiens) (UniProt P23975); conditions: Compound concentration 10.0 uM
[9] = target: T1, Muscarinic acetylcholine receptor M1 (Homo sapiens) (UniProt P11229); conditions: Compound concentration 10.0 uM
T1 sequence (whole entry): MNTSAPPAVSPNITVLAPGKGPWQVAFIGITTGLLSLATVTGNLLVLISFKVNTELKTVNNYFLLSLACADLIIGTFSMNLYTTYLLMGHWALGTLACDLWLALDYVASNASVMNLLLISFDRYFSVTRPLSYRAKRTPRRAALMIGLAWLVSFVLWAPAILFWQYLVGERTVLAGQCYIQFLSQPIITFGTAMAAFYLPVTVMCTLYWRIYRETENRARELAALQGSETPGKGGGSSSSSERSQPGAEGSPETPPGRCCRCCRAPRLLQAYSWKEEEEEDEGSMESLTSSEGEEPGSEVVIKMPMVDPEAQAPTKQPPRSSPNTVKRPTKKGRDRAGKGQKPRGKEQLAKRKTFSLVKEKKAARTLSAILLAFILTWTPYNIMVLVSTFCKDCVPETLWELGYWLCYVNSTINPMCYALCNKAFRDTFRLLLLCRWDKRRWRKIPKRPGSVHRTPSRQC

[10] = target: T2, 5-hydroxytryptamine receptor 3A (Homo sapiens) (UniProt P46098); conditions: Compound concentration 10.0 uM
T2 sequence (whole entry): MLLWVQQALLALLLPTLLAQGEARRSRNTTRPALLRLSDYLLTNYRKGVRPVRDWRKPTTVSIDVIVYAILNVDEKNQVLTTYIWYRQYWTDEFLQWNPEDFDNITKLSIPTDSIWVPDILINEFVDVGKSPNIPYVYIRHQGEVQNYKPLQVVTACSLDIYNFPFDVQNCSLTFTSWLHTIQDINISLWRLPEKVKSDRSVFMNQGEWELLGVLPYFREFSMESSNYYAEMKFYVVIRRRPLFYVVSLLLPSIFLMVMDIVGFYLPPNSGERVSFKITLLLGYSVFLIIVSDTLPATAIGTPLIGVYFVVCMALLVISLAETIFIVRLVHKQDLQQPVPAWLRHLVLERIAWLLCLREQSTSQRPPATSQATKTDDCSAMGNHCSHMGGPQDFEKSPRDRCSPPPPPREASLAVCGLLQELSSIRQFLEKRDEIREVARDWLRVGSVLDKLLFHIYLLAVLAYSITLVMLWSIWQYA

[11] = target: T3, 5-hydroxytryptamine receptor 2C (Homo sapiens) (UniProt P28335); conditions: Compound concentration 10.0 uM
T3 sequence (whole entry): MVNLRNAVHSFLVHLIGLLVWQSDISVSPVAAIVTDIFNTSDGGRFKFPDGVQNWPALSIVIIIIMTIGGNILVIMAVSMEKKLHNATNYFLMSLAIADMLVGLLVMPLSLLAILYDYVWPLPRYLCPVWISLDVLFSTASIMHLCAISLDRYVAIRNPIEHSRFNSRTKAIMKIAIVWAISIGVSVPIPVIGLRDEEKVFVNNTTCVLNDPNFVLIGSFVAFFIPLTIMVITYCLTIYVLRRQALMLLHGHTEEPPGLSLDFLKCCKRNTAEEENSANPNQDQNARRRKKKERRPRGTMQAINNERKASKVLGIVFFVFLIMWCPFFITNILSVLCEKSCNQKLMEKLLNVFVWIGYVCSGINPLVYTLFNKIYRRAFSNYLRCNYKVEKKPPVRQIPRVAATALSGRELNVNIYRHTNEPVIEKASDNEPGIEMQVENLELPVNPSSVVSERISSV

[12] = target: Sodium-dependent serotonin transporter (Homo sapiens) (UniProt P31645); conditions: Compound concentration 10.0 uM
[13] = target: D(1B) dopamine receptor (Homo sapiens) (UniProt P21918); conditions: Compound concentration 10.0 uM
[14] = target: GABA-A receptor; anion channel (Rattus norvegicus) (UniProt O09028+P15431+P18506+P18508+P19969+P20236+P23574+P23576+P28471+P28473+P30191+P62813+P63079+P63138+Q91ZM7+Q9ES14); conditions: Compound concentration 10.0 uM
[15] = target: T4, Muscarinic acetylcholine receptor M2 (Homo sapiens) (UniProt P08172); conditions: Compound concentration 10.0 uM
T4 sequence (whole entry): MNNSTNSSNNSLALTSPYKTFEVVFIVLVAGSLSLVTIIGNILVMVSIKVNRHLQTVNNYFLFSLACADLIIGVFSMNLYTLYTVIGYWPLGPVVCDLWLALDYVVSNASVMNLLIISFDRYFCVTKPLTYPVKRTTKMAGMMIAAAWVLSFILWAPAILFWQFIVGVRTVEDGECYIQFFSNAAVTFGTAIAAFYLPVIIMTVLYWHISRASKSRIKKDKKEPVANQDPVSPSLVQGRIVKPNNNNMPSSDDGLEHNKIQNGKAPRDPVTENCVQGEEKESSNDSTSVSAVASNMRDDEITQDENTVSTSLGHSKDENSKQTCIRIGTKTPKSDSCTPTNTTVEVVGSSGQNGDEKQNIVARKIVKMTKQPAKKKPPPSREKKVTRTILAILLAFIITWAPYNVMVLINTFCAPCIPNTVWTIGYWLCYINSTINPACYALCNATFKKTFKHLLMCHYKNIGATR

[16] = target: D(3) dopamine receptor (Homo sapiens) (UniProt P35462); conditions: Compound concentration 10.0 uM
[17] = target: Kappa-type opioid receptor (Homo sapiens) (UniProt P41145); conditions: Compound concentration 10.0 uM
[18] = target: Delta-type opioid receptor (Homo sapiens) (UniProt P41143); conditions: Compound concentration 10.0 uM
[19] = target: 5-hydroxytryptamine receptor 6 (Homo sapiens) (UniProt P50406); conditions: Compound concentration 10.0 uM
Sequence of 5-hydroxytryptamine receptor 6 (Homo sapiens) (P50406 whole entry): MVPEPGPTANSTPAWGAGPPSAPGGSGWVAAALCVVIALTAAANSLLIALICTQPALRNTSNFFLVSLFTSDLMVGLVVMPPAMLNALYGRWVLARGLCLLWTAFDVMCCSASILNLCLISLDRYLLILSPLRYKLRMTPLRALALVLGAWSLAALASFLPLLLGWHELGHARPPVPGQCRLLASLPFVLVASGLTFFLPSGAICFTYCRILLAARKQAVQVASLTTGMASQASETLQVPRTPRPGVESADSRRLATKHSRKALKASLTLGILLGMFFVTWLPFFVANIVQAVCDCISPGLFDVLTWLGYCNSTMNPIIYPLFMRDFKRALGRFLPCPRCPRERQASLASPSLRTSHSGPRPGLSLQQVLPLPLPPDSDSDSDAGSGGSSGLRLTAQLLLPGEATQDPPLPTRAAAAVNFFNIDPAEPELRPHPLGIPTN

Sequence of Delta-type opioid receptor (Homo sapiens) (P41143 whole entry): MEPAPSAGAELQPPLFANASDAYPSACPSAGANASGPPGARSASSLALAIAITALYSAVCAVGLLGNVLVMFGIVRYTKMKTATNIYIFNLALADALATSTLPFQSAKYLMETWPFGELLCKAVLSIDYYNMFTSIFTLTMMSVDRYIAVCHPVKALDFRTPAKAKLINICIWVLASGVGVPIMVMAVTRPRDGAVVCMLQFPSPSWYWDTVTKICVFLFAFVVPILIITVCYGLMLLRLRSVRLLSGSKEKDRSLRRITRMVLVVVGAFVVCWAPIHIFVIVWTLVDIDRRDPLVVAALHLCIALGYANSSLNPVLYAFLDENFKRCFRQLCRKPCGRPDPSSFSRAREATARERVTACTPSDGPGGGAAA
Sequence of 5-hydroxytryptamine receptor 2A (Homo sapiens) (P28223 whole entry): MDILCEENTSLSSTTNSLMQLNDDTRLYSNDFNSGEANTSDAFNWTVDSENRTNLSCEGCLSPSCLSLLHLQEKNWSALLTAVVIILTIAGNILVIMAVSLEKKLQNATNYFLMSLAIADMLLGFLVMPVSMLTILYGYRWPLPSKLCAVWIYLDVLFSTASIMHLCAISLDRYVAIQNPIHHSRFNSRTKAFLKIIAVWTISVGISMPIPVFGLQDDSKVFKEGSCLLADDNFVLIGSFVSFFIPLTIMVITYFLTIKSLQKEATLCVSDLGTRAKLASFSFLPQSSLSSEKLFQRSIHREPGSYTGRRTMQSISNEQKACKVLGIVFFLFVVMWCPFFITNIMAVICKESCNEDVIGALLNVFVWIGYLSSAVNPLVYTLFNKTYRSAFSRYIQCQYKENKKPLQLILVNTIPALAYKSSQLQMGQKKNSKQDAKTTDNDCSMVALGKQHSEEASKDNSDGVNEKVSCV
Sequence of 5-hydroxytryptamine receptor 2B (Homo sapiens) (P41595 whole entry): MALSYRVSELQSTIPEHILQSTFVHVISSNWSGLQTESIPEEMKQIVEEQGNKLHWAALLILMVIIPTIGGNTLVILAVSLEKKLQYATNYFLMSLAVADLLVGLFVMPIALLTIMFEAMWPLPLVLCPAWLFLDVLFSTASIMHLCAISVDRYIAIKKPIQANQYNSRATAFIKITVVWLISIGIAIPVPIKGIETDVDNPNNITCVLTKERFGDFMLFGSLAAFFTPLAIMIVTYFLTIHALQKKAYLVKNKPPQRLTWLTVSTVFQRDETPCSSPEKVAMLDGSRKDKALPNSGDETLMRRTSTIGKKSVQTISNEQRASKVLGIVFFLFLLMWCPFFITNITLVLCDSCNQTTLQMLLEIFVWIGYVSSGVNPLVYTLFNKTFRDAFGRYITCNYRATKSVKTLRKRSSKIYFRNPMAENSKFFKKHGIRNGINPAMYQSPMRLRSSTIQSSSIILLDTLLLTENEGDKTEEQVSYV
Sequence of D(3) dopamine receptor (Homo sapiens) (P35462 whole entry): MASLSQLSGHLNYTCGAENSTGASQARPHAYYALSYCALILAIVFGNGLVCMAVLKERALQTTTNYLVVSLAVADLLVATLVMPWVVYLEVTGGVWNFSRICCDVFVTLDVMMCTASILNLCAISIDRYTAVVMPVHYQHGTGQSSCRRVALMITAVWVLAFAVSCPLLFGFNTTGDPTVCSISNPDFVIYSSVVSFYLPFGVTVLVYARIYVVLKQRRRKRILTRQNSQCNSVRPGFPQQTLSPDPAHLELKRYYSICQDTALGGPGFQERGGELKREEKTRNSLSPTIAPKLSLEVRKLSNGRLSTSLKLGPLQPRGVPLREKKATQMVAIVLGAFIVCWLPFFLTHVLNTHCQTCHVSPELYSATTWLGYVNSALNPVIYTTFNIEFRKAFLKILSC
Sequence of Kappa-type opioid receptor (Homo sapiens) (P41145 whole entry): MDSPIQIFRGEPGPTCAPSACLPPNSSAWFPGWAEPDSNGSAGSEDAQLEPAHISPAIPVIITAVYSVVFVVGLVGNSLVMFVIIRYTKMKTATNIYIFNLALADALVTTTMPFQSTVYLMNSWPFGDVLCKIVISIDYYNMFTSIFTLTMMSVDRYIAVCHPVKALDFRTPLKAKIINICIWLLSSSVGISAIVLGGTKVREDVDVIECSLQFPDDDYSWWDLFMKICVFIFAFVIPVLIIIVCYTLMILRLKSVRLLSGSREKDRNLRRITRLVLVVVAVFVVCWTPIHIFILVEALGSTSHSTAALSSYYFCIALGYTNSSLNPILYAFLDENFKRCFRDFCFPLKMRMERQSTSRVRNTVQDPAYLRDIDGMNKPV
Sequence of Sodium-dependent noradrenaline transporter (Homo sapiens) (P23975 whole entry): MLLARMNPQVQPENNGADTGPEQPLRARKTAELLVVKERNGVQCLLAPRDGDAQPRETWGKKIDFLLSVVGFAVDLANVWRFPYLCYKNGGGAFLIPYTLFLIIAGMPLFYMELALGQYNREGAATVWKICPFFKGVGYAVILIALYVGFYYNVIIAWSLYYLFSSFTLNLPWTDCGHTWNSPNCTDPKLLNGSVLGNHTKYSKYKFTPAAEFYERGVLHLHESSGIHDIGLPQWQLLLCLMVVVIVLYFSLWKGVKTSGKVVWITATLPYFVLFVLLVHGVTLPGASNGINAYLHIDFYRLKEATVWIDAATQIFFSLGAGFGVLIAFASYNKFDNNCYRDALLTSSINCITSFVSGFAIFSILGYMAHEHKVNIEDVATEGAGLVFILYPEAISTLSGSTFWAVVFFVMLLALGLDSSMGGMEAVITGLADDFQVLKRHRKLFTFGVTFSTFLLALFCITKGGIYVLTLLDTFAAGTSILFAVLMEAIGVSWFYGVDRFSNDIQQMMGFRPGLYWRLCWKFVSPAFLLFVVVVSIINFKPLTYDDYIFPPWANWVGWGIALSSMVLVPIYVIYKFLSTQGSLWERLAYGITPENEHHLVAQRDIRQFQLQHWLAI
Sequence of D(1B) dopamine receptor (Homo sapiens) (P21918 whole entry): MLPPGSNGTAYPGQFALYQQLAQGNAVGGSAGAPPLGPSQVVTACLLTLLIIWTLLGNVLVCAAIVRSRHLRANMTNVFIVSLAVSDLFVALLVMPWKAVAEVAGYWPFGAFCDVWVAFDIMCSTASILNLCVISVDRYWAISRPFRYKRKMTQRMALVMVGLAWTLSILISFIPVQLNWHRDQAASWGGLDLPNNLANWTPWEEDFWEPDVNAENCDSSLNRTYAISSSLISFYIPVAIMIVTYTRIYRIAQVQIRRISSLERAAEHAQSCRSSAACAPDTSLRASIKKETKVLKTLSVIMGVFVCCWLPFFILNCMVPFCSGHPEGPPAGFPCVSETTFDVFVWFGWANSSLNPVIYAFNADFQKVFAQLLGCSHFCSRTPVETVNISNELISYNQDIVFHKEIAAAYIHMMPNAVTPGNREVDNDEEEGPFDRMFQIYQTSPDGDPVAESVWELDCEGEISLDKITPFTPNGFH
Sequence of Histamine H2 receptor (Homo sapiens) (P25021 whole entry): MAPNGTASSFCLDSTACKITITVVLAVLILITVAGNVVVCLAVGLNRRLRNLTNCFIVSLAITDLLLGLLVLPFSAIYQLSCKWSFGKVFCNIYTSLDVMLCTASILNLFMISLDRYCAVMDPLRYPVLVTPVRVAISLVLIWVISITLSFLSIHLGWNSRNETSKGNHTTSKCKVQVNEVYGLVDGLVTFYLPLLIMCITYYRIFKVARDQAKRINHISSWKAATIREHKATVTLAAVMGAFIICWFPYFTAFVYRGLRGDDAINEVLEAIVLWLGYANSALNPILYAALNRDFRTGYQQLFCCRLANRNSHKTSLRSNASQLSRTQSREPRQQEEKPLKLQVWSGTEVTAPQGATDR
Sequence of Sodium-dependent serotonin transporter (Homo sapiens) (P31645 whole entry, looked up): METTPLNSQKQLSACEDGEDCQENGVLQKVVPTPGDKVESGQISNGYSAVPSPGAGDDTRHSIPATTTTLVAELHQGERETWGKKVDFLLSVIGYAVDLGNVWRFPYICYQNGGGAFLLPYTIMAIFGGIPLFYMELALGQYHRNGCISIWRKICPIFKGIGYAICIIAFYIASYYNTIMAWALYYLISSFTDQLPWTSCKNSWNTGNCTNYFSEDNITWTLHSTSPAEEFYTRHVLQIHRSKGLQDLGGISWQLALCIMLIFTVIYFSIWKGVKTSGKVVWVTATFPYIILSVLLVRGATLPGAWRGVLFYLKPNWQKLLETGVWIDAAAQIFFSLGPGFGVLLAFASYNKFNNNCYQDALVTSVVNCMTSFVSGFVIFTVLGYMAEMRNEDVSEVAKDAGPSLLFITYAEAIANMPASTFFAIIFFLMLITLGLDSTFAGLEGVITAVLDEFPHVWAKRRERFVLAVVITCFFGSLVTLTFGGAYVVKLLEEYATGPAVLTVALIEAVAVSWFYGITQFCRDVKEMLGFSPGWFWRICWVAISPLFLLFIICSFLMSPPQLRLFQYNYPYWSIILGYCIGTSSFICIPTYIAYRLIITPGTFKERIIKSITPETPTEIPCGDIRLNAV

COc1ccc2cc(OCC3(C(=O)O)CN(C(=O)c4ccc(F)cc4)C3)ccc2c1 [PF-04418948]
inactive: residual activity [1] 88% | residual activity [2] 96% | inhibition [3] 6.25% | residual activity [4] 94% | residual activity [5] 95% | inhibition [6] -0.11% | inhibition [7] 3% | inhibition [8] 11% | inhibition [9] -0.03% | inhibition [10] 0.08% | inhibition [11] 12.3% | inhibition [12] -6.83% | inhibition [13] -2.51% | inhibition [14] 18.7% | inhibition [15] 16.7% | inhibition [16] 33% | inhibition [17] 16.4% | inhibition [18] 5.07% | inhibition [19] -6.47%

O=C(c1ccc(F)cc1)N1CC(COc2ccc(Br)cc2)(C(=O)O)C1 [PF-04475866]
inactive: inhibition [3] -2.23% | inhibition [6] -2.5% | inhibition [7] 15.7% | inhibition [8] 16.8% | inhibition [9] -0.69% | inhibition [10] 16.6% | inhibition [11] 30.2% | inhibition [12] -6.29% | inhibition [13] 2.2% | inhibition [14] -5.33% | inhibition [15] 26.7% | inhibition [16] 3.89% | inhibition [17] -9.45% | inhibition [18] -5.22% | inhibition [19] -2.64%
